Among the data in patent publication US20250074907A1, “INHIBITORS OF SARS-COV-2” (THE TEXAS A&M UNIVERSITY SYSTEM, priority 2021, published 2025) are IC50 values, retold here.

Each structure is given as a SMILES string.

The first assay concerns the target main protease (Mpro) of SARS-CoV-2 (Severe acute respiratory syndrome coronavirus 2 (2019-nCoV) (SARS-CoV-2), UniProt P0DTD1). As to the kind of experiment: Enzyme IC50 of SARS-CoV-2 inhibitors. As to conditions: Table 1, Example SARS-COV-2 inhibitors. The class given is biochemical.
Broadly, the IC50 is the concentration needed to halve the response being measured. Read a high IC50 as a need for much substance. For the molecule `Cc1cncc(-c2nnc3n2CCN(C(c2ccccc2)c2ccccc2)C3)c1` [PKJ-585], half-maximal inhibition (IC50) required 5800 nM.

The same assay, now with this note: Table 2, List of compounds.
Molecule `N=S1(=O)Cc2ccccc2C(=C2CCN(C(=O)c3cncc4cc[nH]c34)CC2)c2ccccc21` (centres unmarked) [NZ- 830, [4-(5-imino-5-oxo-6H-benzo[c][1]benzothiepin-11-ylidene)-1-piperidyl]-(1H-pyrrolo [3,2-c]pyridin-7-yl)methanone] had an IC50 of 32 to 39 nM.

Regarding `O=C1Cc2ccccc2C(=C2CCN(C(=O)c3cncc4cc[nH]c34)CC2)c2ccccc21` [NZ- 839], the concentration for half-maximal inhibition (IC50) turned out to be 18 nM.

`Cc1cncc(C(=O)N2CCN(C3c4cc(F)ccc4CS(=O)(=O)c4ccccc43)CC2)c1` (centres unmarked) [NZ- 833, [4-(9-fluoro-5,5-dioxo-6,11-dihydrobenzo[c][1]benzothiepin-11-yl)piperazin-1-yl]-(5-methyl-3-pyridyl)methanone] returned an IC50 of 66 to 130 nM.

Molecule `O=C(c1cncc2cc[nH]c12)N1CCC(=C2c3ccccc3C3OC3c3ccccc32)CC1` (centres unmarked) [NZ- 838] registered a 50% inhibitory concentration (IC50) of 91 nM.

For `Cc1cncc(C(=O)N2CCN(C3c4ccccc4CS(=O)(=O)c4ccc(F)cc43)CC2)c1` (centres unmarked) [NZ- 831, [4-(2-fluoro-5,5-dioxo-6,11-dihydrobenzo[c][1]benzothiepin-11-yl)piperazin-1-yl]-(5-methyl-3-pyridyl)methanone], the IC50 worked out at 45 nM.

`O=C1Cc2ccccc2C(=C2CCN(C(=O)c3cncc4cc[nH]c34)CC2)c2ccsc21` [NZ- 836] came in with an IC50 of 9 to 20 nM.

`Cc1cncc(C(=O)N2CCC(=C3c4ccccc4CC(=O)c4sccc43)CC2)c1` [NZ- 835, 2-[1-(5-methylpyridine-3-carbonyl)-4-piperidylidene]-6-thiatricyclo[8.4.0.03,7]tetradeca-1(10),3(7),4,11,13-pentaen-8-one] showed a 50% inhibitory concentration (IC50) of 27 to 48 nM.

`O=C(c1cncc2cc[nH]c12)N1CCC(=C2c3ccccc3CSc3ccccc32)CC1` [NZ- 828, [4-(6H-benzo[c][1]benzothiepin-11-ylidene)-1-piperidyl]-(1H-pyrrolo[3,2-c]pyridin-7-yl)methanone]: the IC50 was in the range of 21 to 33 nM.

On to `Cc1cncc(C(=O)N2CCC(=C3c4ccccc4CS(=N)(=O)c4ccccc43)CC2)c1` (centres unmarked) [NZ- 827, [4-(5-imino-5-oxo-6H-benzo[c][1]benzothiepin-11-ylidene)-1-piperidyl]-(5-methyl-3-pyridyl)methanone], for which the midpoint of inhibition, the IC50, lay at 57 nM.

Regarding `Cc1cncc(C(=O)N2CCC(=C3c4ccccc4C[S+]([O-])c4ccccc43)CC2)c1` (centres unmarked) [NZ- 826, (5-methyl-3-pyridyl)-[4-(5-oxo-6H-benzo[c][1]benzothiepin-11-ylidene)-1-piperidyl]methanone], the IC50 lay in the range of 60 to 70 nM.

Take `O=C(c1cncc2cc[nH]c12)N1CCN(C2c3ccccc3CS(=O)(=O)c3ccc(F)cc32)CC1` (centres unmarked) [NZ- 832, [4-(2-fluoro-5,5-dioxo-6,11-dihydrobenzo[c][1]benzothiepin-11-yl)piperazin-1-yl]-(1H-pyrrolo[3,2-c]pyridin-7-yl)methanone]: it took 18 nM to reach half-maximal inhibition (IC50).

In turn, `O=C(c1cncc2cc[nH]c12)N1CCC(=C2c3ccccc3C[S+]([O-])c3ccccc32)CC1` (centres unmarked) [NZ- 829, [4-(5-oxo-6H-benzo[c][1]benzothiepin-11-ylidene)-1-piperidyl]-(1H-pyrrolo[3,2-c]pyridin-7-yl)methanone] yielded an IC50 of 15 to 31 nM.

`O=C(c1cncc2cc[nH]c12)N1CCN(C2c3cc(F)ccc3CS(=O)(=O)c3ccccc32)CC1` (centres unmarked) [NZ- 834, [4-(9-fluoro-5,5-dioxo-6,11-dihydrobenzo[c][1]benzothiepin-11-yl)piperazin-1-yl]-(1H-pyrrolo[3,2-c]pyridin-7-yl)methanone] showed an IC50 of 14 to 47 nM.
